# Test results from US7803801B2, “Aminopyridine compounds having Syk inhibitory activity” (Japan Tobacco, Inc., priority 2005, dated 2010).
# Structures can show the parent of a compound that is named as a salt.
# Experiments:
# [1] = biological target: GST-Syk Full Protein (human) (Homo sapiens, UniProt P43405); experiment: Syk kinase inhibition test (HTRF method); type: biochemical; conditions: HTRF, 100 μM ATP, 30 min room temperature, average; read-out: sykHTRF ave IC50
# How it was run: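 HTRF read-out: after EDTA termination and 1 h with XL665-streptavidin and Eu-anti-phosphotyrosine, the 665/620 nm ratio was measured. The reaction ran 30 min at 20–25 °C with final 6.4 nM human GST-Syk, 250 nM biotinylated peptide, 100 μM ATP, pH 7.0 HEPES buffer, 2% DMSO.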
# [2] = tested on: cultured human mast cells; experiment: Degranulation inhibition test using cultured human mast cells (IgE cross-linking, β-Hexosaminidase release); type: cell-based; conditions: Mast cell; cultured human mast cells, anti-hIgE stimulation, β-Hexosaminidase index, average; read-out: human degranulation ave. IC50
# How it was run: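 Degranulation was triggered by anti-hIgE (10 μg/mL final, 30 min, 37 °C) after a 10-min compound pretreatment (DMSO 0.1%) of cord-blood CD34+-derived mast cells primed 5 days with IL-4 and IgE. β-Hexosaminidase in supernatant was measured with p-nitrophenyl-GlcNAc substrate (A405), expressed against water-lysed total; IC50 (M).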
Compound,IC50 [1] [nM],IC50 [2] [nM]
"Cc1ccnc(Nc2cccc(-c3cnc([C@H]4CC[C@H](C(=O)N5CCNCC5)CC4)s3)n2)c1 [Compound A-176, (trans-4-{5-[6-(4-methylpyridin-2-ylamino)pyridin-2-yl]thiazol-2-yl}cyclohexyl)-(piperazin-1-yl)methanone]",< 100,> 1000
Cc1ccnc(Nc2cccc(-c3cnc([C@@H](N)Cc4ccc(NC(=O)OCc5ccccc5)cc4)s3)n2)c1 [Compound A-177],100 to 1000,> 1000
CC(=O)N[C@@H](Cc1ccc(NC(=O)OCc2ccccc2)cc1)c1ncc(-c2cccc(Nc3cc(C)ccn3)n2)s1 [Compound A-178],> 1000,> 1000
CC(=O)Nc1ccc(C[C@H](NC(C)=O)c2ncc(-c3cccc(Nc4cc(C)ccn4)n3)s2)cc1 [Compound A-179],100 to 1000,100 to 1000
Cc1ccnc(Nc2cccc(-c3cnc([C@@H](N)Cc4ccc(N)cc4)s3)n2)c1 [Compound A-180],100 to 1000,> 1000
CC(=O)N(CCC(=O)O)Cc1ncc(-c2cccc(Nc3cc(C)ccn3)n2)s1 [Compound A-181],100 to 1000,> 1000
"Cc1ccnc(Nc2cccc(-c3cnc(C4CCN(C(N)=O)CC4)s3)n2)c1 [Compound A-182, 4-{5-[6-(4-methylpyridin-2-ylamino)pyridin-2-yl]thiazol-2-yl}piperidine-1-carboxamide]",< 100,100 to 1000
Cc1ccnc(Nc2cccc(-c3cnc(C4CCN(C)CC4)s3)n2)c1 [Compound A-183],100 to 1000,> 1000
COC(=O)CN1CCC(c2ncc(-c3cccc(Nc4cc(C)ccn4)n3)s2)CC1 [Compound A-184],100 to 1000,100 to 1000
Cc1ccnc(Nc2cccc(-c3cnc(C4CCN(CC(=O)O)CC4)s3)n2)c1 [Compound A-185],100 to 1000,> 1000
Cc1ccnc(Nc2cccc(-c3cnc(CNC(=O)CCO)s3)n2)c1 [Compound A-186],100 to 1000,100 to 1000
"Cc1ccnc(Nc2cccc(-c3cnc(C4CCN(C(=O)CO)CC4)s3)n2)c1 [Compound A-187, 2-hydroxy-1-(4-{5-[6-(4-methylpyridin-2-ylamino)pyridin-2-yl]thiazol-2-yl}piperidin-1-yl)ethanone]",< 100,100 to 1000
"COc1ccnc(Nc2cccc(-c3cnc([C@H]4CC[C@H](C(=O)O)CC4)s3)n2)c1 [Compound A-188, trans-4-{5-[6-(4-methoxypyridin-2-ylamino)pyridin-2-yl]thiazol-2-yl}cyclohexanecarboxylic acid]",< 100,100 to 1000
Cc1ccnc(Nc2cccc(-c3cnc(C4CCN(CCO)CC4)s3)n2)c1 [Compound A-189],100 to 1000,100 to 1000
CC(=O)N1CCN(Cc2ncc(-c3cccc(Nc4cc(C)ccn4)n3)s2)CC1 [Compound A-190],100 to 1000,100 to 1000
Cc1ccnc(Nc2cccc(-c3cnc(CN[C@H]4CC[C@H](O)CC4)s3)n2)c1 [Compound A-191],100 to 1000,100 to 1000
"Cc1ccnc(Nc2cccc(-c3cnc(C4CCN(C(=O)CC(=O)O)CC4)s3)n2)c1 [Compound A-192, 3-(4-{5-[6-(4-methylpyridin-2-ylamino)pyridin-2-yl]thiazol-2-yl}piperidin-1-yl)-3-oxopropionic acid hydrochloride]",< 100,> 1000
Cc1ccnc(Nc2cccc(-c3cnc(CN4CCOCC4)s3)n2)c1 [Compound A-193],100 to 1000,100 to 1000
"Cc1ccnc(Nc2cccc(-c3cnc(CN4CCNCC4)s3)n2)c1 [Compound A-194, N-(4-methylpyridin-2-yl)-N-{6-[2-(piperazin-1-ylmethyl)thiazol-5-yl]pyridin-2-yl}amine]",< 100,100 to 1000
Cc1ccnc(Nc2cccc(-c3cnc(COC(=O)NCC4(O)CCCCC4)s3)n2)c1 [Compound A-195],100 to 1000,100 to 1000
Cc1ccnc(Nc2cccc(-c3cnc(CNCC4(O)CCCCC4)s3)n2)c1 [Compound A-196],100 to 1000,100 to 1000
"Cc1ccnc(Nc2cccc(-c3cnc(CN4CCC(N)CC4)s3)n2)c1 [Compound A-197, 1-{5-[6-(4-methylpyridin-2-ylamino)pyridin-2-yl]thiazol-2-ylmethyl}piperidin-4-ylamine]",< 100,100 to 1000
Cc1ccnc(Nc2cccc(-c3cnc(CN4CCN(S(C)(=O)=O)CC4)s3)n2)c1 [Compound A-198],100 to 1000,100 to 1000
CC(=O)N[C@@H](C)c1ncc(-c2cccc(Nc3cc(C4(C)OCCO4)ccn3)n2)s1 [Compound A-199],100 to 1000,100 to 1000
